# Read-outs that look alike come from different tables or passages of the source. Where a SMILES comes first, the peptide text is derived from it. Where no end group is shown, it is not given here.
# How the values were obtained:
# [1] = system: Staphylococcus epidermidis DSM 20044; format: cell-based
# Method: (§1) For these studies we used reference strains Escherichia coli ATCC25922, Bacillus subtilis 168c, Staphylococcus epidermidis DSM 20044 (DSMZ Gmbh, Brauschweig, Germany) and Enterococcus hirae DSM 3320 (DSMZ Gmbh, Germany). Bacterial cells were inoculated into Mueller–Hinton Broth II (MHB II; Sigma-Aldrich, Steinheim, Germany) and grown to the mid-logarithmic phase, washed in sodium buffered saline (PBS, 137 mM NaCl, 2.7 mM KCl, 10 mM Na2HPO4, and 2 mM KH2PO4, pH 7.4). The culture was adjusted to ~1 × 10^6 CFU/mL and dispensed into 96-well microtiter plates. Peptides were tested in two-fold serial dilutions across a concentration range of 0.4–100 µM, each concentration assayed in duplicate. Growth control wells (bacteria + medium, no peptide) and sterility control wells (medium only) were included. In parallel, the inoculum density and purity were verified by plating serial dilutions of the bacterial culture on MHB agar. After incubation at 37 °C for 20 h under static conditions, bacterial growth was quantified by measuring optical density at 620 nm (OD 620). […] The experiment was repeated in three independent biological replicates.
# [2] = system: Gram-positive and Gram-negative bacteria; conditions: cited from earlier work
# Source text: Even though the discovery of antibiotics revolutionized medicine, their inappropriate use has enabled the spread of resistant bacteria and rendered commercially available antibiotics ineffective. Antibiotic resistance (AR) is one of the greatest threats, and the development of new molecules with antibacterial activity has become a global priority. Antimicrobial peptides (AMPs), naturally occurring defense molecules found across many species, represent a powerful alternative antibacterial strategy against antibiotic-resistant pathogens. As part of the innate immune response, ...
# B. subtilis = assay: Membrane permeability assay (propidium iodide uptake), B. subtilis; format: cell-based, Bacillus subtilis; conditions: 1 × 10^7 cells/mL in PBS; PI 2.5 µg/mL; up to 400 µM; 37 °C, 120 min; fluorescence 535/617 nm; three independent experiments in duplicates
# Method: (§2) Bacterial membrane permeabilization was evaluated using propidium iodide (PI) uptake. PI is a membrane-impermeable dye: it cannot cross intact bacterial cytoplasmic membranes, but when the membrane integrity is compromised (for example, via peptide-mediated permeabilization), PI enters the cell, intercalates into nucleic acids (DNA and RNA) and fluorescence increases markedly. B. subtilis, E. hirae and S. epidermidis cells were grown to mid-logarithmic phase, harvested by centrifugation, washed once with PBS and diluted to a concentration of 1 × 10^7 cells/mL using PBS instead of growth medium. […] Fluorescence (excitation 535 nm, emission 617 nm) was monitored every 2 min for 120 min at 37 °C using a microplate reader (GloMax®, Promega, Madison, WI, USA). The time-course fluorescence curves were recorded for each peptide concentration (in duplicate for each time point, and the entire experiment was repeated three independent times). From each time-course fluorescence curve (for a given peptide concentration), a constant time-window (for example minutes 10 to 20) was selected where the fluorescence signal was stable or in the linear uptake phase. The fluorescence values within that window were averaged to provide a representative fluorescence uptake value for that peptide concentration. […]
# S. epidermidis = assay: Membrane permeability assay (propidium iodide uptake), S. epidermidis; format: cell-based, Staphylococcus epidermidis; conditions: 1 × 10^7 cells/mL in PBS; PI 2.5 µg/mL; 37 °C, 120 min
# Method: as §2
# E. hirae = assay: Membrane permeability assay (propidium iodide uptake), E. hirae; format: cell-based, Enterococcus hirae; conditions: 1 × 10^7 cells/mL in PBS; PI 2.5 µg/mL; 37 °C, 120 min
# Method: as §2
# [3] = system: Escherichia coli ATCC25922; format: cell-based; conditions: E. coli ATCC25922; cation-adjusted MHB II; ~1 × 10^6 CFU/mL; two-fold dilutions; 37 °C, 20 h; OD 620; three independent replicates, duplicates
# Method: as §1
compound,measurement,setting,value
"CC[C@H](C)[C@H](NC(=O)[C@H](CS)NC(=O)[C@@H](N)CCCNC(=N)N)C(=O)N[C@@H](CCCNC(=N)N)C(=O)N[C@@H](CCCNC(=N)N)C(=O)N[C@@H](CS)C(=O)N[C@@H](Cc1ccccc1)C(=O)NCC(=O)N[C@@H](Cc1ccc(O)cc1)C(=O)N[C@@H](CS)C(=O)N[C@@H](CC(C)C)C(=O)O [EB3, Arg-Cys-Ile-Arg-Arg-Cys-Phe-Gly-Tyr-Cys-Leu] (H-RCIRRCFGYCL-OH)",MIC against S. epidermidis,"[1]; DSM 20044, 20 h",25 µM
"GQCQRKCLGHCSKKCPKHPQCRKRCIRRCFGYCL [Equinin B, 34-residue marine antimicrobial peptide isolated from the tentacle of Actinia equina]",bactericidal concentrations,[2],0.25 mg/mL
same,minimum inhibitory concentrations (MICs),[2],1000 µg/mL
"LL-37 (LLGDFFRKSKEKIGKEFKRIVQRIKDFLRNLVPRTES; Antibacterial peptide LL-37; UniProt P49913 134-170, looked up)","membrane permeabilization of B. subtilis (PI uptake), in words",B. subtilis,extensive membrane permeabilization
same,"membrane permeabilization of S. epidermidis (PI uptake), in words",S. epidermidis,unable to permeabilize
same,"membrane permeabilization of E. hirae (PI uptake), in words",E. hirae,unable to permeabilize
"RRIRRRFGYRL [EB3-C, Arg-Arg-Ile-Arg-Arg-Arg-Phe-Gly-Tyr-Arg-Leu]","MIC90, Staphylococcus epidermidis","[1]; DSM 20044, 20 h",25 to 50 µg/mL
"RRIRRRGYRL-OH [EB3a-C, Arg-Arg-Ile-Arg-Arg-Arg-Gly-Tyr-Arg-Leu]","antimicrobial activity against S. epidermidis, in words","[1]; MIC assay, up to 100 µM",abolished activity
same,"MIC90, Staphylococcus epidermidis","[1]; S. epidermidis DSM 20044, cation-adjusted MHB II, ~1 × 10^6 CFU/mL, two-fold dilutions, 37 °C, 20 h, OD 620, three independent replicates, duplicates",>100 µg/mL
same,"MIC90, Escherichia coli",[3],>100 µg/mL

# Reference: publication PMC12842892, “Truncated Equinin B Variants Reveal the Sequence Determinants of Antimicrobial Selectivity” (Marine Drugs, 2026)
